Laboratory results taken from patent publication US20240033234A1, “THERAPEUTIC COMPOUNDS, FORMULATIONS, AND USE THEREOF” (Tvardi Therapeutics, Inc., priority 2022, published 2024).
Values joined by “and” are separate entries in the source; they are usually repeats but may differ in a detail not shown here. Equal values may be shown once. Blank lines part the entries; values can stand above or below the molecule they belong to.

Experiment: 3-Month stability data for TTI-101 Batches B, C, D and E stored at 40° C./75% RH
Format: physicochemical
Protocol: Exemplary HPLC conditions: diluent was 0.1% trifluoroacetic acid (TFA) in acetonitrile, Mobile Phase A was 0.05% TFA in water, and Mobile Phase B was 0.05% TFA in acetonitrile, column (Agilent, Eclipse XDB-C18, 3.0×100 mm, particle size 1.8 μm), flow (0.425 mL/min), and detector (280 nm diode array).
Batches B, C, and D were prepared according to Method 5, Method 4, and Method 3, respectively, as described in Example 1. Batch E was prepared analogously using according to Method 1 as described in Example 1.
Samples of TTI-101 (Batches B, C, D, and E) were stored at 40° C./75% RH for 3 months. The batches were individually stored in an low density polyethylene (LDPE) bag enclosed with a Nylon cable tie and then transferred to another LDPE bag and enclosed with a Nylon cable tie. The enclosure was put into a high density polyethylene (HDPE) bottle and closed with a polyethylene-lined polypropylene cap. For Batch B only, another sample was enclosed in a screw-top amber glass bottle and closed with a cap. The samples were stored under the above-identified conditions.

- Impurities Total, Area % (0 M): 0.2 Area %
- Impurity RRT 0.39, Area % (0 M): 0.06 Area %
- Impurity RRT 0.49, Area % (0 M): NQ (≥0.02% and <0.05%)
- Impurity RRT 0.54, Area % (0 M): NQ (≥0.02% and <0.05%)
- Impurity RRT 0.99, Area % (0 M): NQ (≥0.02% and <0.05%)
- Impurity RRT 1.16 (Cmp 6), Area % (0 M): 0.12 Area %
- Impurities Total, Area % (1 M): 0.3 Area %
- Impurity RRT 0.80, Area % (1 M): NQ (≥0.02% and <0.05%)
- Impurity RRT 0.84, Area % (1 M): NQ (≥0.02% and <0.05%)
- Impurity RRT 0.87, Area % (1 M): NQ (≥0.02% and <0.05%)
- Impurity RRT 0.99, Area % (1 M): 0.05 Area %
- Impurity RRT 1.02, Area % (1 M): 0.06 Area %
- Impurity RRT 1.06 (Cmp 4), Area % (1 M): NQ (≥0.02% and <0.05%)
- Impurity RRT 1.17 (Cmp 6), Area % (1 M): 0.23 Area %
- Impurity RRT 1.39, Area % (1 M): NQ (≥0.02% and <0.05%)
- Impurities Total, Area % (2 M): 0.4 Area %
- Impurity RRT 0.39, Area % (2 M): NQ (≥0.02% and <0.05%)
- Impurity RRT 0.80, Area % (2 M): NQ (≥0.02% and <0.05%)
- Impurity RRT 0.84, Area % (2 M): NQ (≥0.02% and <0.05%)
- Impurity RRT 0.87, Area % (2 M): NQ (≥0.02% and <0.05%)
- Impurity RRT 0.99, Area % (2 M): NQ (≥0.02% and <0.05%)
- Impurity RRT 1.02, Area % (2 M): 0.10 Area %
- Impurity RRT 1.05, Area % (2 M): NQ (≥0.02% and <0.05%)
- Impurity RRT 1.06 (Cmp 4), Area % (2 M): NQ (≥0.02% and <0.05%)
- Impurity RRT 1.17 (Cmp 6), Area % (2 M): 0.323 Area % and 0.23 Area %
- Impurity RRT 1.39, Area % (2 M): 0.09 Area %
- Impurities Total, Area % (3 M): 2.9 Area %
- Impurity RRT 0.40, Area % (3 M): NQ (≥0.02% and <0.05%)
- Impurity RRT 0.85, Area % (3 M): NQ (≥0.02% and <0.05%)
- Impurity RRT 0.88, Area % (3 M): NQ (≥0.02% and <0.05%)
- Impurity RRT 0.98, Area % (3 M): NQ (≥0.02% and <0.05%)
- Impurity RRT 1.02, Area % (3 M): 0.13 Area %
- Impurity RRT 1.06 (Cmp 4), Area % (3 M): NQ (≥0.02% and <0.05%)
- Impurity RRT 1.10, Area % (3 M): NQ (≥0.02% and <0.05%)
- Impurity RRT 1.13, Area % (3 M): NQ (≥0.02% and <0.05%)
- Impurity RRT 1.16 (Cmp 6), Area % (3 M): 2.6 Area %
- Impurity RRT 1.38 (1.39), Area % (3 M): 0.14 Area %
- Purity (%) (T = 0 month (0 M)): 99.8% and 99.6%
- Purity (%) (T = 1 month (1 M)): 99.5%
- Purity (%) (T = 2 months (2 M)): 99.4%
- Purity (%) (T = 3 months (3 M)): 97.0%
SMILES: COc1ccc(S(=O)(=O)Nc2cc(-c3c(O)ccc4ccccc34)c(O)c3ccccc23)cc1 [Batch B (glass storage)]

- Impurities Total, Area % (0 M): 0.2 Area %
- Impurity RRT 0.39, Area % (0 M): 0.06 Area %
- Impurity RRT 0.49, Area % (0 M): NQ (≥0.02% and <0.05%)
- Impurity RRT 0.54, Area % (0 M): NQ (≥0.02% and <0.05%)
- Impurity RRT 0.99, Area % (0 M): NQ (≥0.02% and <0.05%)
- Impurity RRT 1.16 (Cmp 6), Area % (0 M): 0.12 Area %
- Impurities Total, Area % (1 M): 0.1 Area % and 0.3 Area %
- Impurity RRT 0.80, Area % (1 M): NQ (≥0.02% and <0.05%)
- Impurity RRT 0.84, Area % (1 M): NQ (≥0.02% and <0.05%)
- Impurity RRT 0.87, Area % (1 M): NQ (≥0.02% and <0.05%)
- Impurity RRT 0.99, Area % (1 M): NQ (≥0.02% and <0.05%)
- Impurity RRT 1.02, Area % (1 M): 0.05 Area %
- Impurity RRT 1.05, Area % (1 M): NQ (≥0.02% and <0.05%)
- Impurity RRT 1.06 (Cmp 4), Area % (1 M): NQ (≥0.02% and <0.05%)
- Impurity RRT 1.17 (Cmp 6), Area % (1 M): 0.24 Area %
- Impurity RRT 1.39, Area % (1 M): NQ (≥0.02% and <0.05%)
- Impurities Total, Area % (2 M): 0.6 Area %
- Impurity RRT 0.39, Area % (2 M): NQ (≥0.02% and <0.05%)
- Impurity RRT 0.51, Area % (2 M): 0.06 Area %
- Impurity RRT 0.80, Area % (2 M): NQ (≥0.02% and <0.05%)
- Impurity RRT 0.84, Area % (2 M): NQ (≥0.02% and <0.05%)
- Impurity RRT 0.87, Area % (2 M): NQ (≥0.02% and <0.05%)
- Impurity RRT 0.99, Area % (2 M): NQ (≥0.02% and <0.05%)
- Impurity RRT 1.02, Area % (2 M): 0.11 Area %
- Impurity RRT 1.05, Area % (2 M): NQ (≥0.02% and <0.05%)
- Impurity RRT 1.06 (Cmp 4), Area % (2 M): NQ (≥0.02% and <0.05%)
- Impurity RRT 1.17 (Cmp 6), Area % (2 M): 0.32 Area %
- Impurity RRT 1.39, Area % (2 M): 0.10 Area % and 0.1 Area %
- Impurities Total, Area % (3 M): 3.2 Area %
- Impurity RRT 0.40, Area % (3 M): NQ (≥0.02% and <0.05%)
- Impurity RRT 0.85, Area % (3 M): NQ (≥0.02% and <0.05%)
- Impurity RRT 0.88, Area % (3 M): NQ (≥0.02% and <0.05%)
- Impurity RRT 0.98, Area % (3 M): NQ (≥0.02% and <0.05%)
- Impurity RRT 1.02, Area % (3 M): 0.13 Area %
- Impurity RRT 1.05, Area % (3 M): NQ (≥0.02% and <0.05%)
- Impurity RRT 1.06 (Cmp 4), Area % (3 M): NQ (≥0.02% and <0.05%)
- Impurity RRT 1.13, Area % (3 M): NQ (≥0.02% and <0.05%)
- Impurity RRT 1.16 (Cmp 6), Area % (3 M): 2.9 Area %
- Impurity RRT 1.38 (1.39), Area % (3 M): 0.16 Area %
- Purity (%) (T = 0 month (0 M)): 99.8% and 99.6%
- Purity (%) (T = 1 month (1 M)): 99.5%
- Purity (%) (T = 2 months (2 M)): 99.2%
- Purity (%) (T = 3 months (3 M)): 96.6%
SMILES: COc1ccc(S(=O)(=O)Nc2cc(-c3c(O)ccc4ccccc34)c(O)c3ccccc23)cc1 [Batch B (LDPE storage)]
